Measured values as given in PMC6199744, “Development of Chemical Proteomics for the Folateome and Analysis of the Kinetoplastid Folateome” (ACS Infectious Diseases, 2018).
Read-outs that look alike come from different tables or passages of the source.

Legend:
Type in all cases: binding
[1] = biological target: T1, HeLa cell extract proteins (Homo sapiens, UniProt P21266); settings: protein GSTM3; HeLa
T1 construct: endogenous in cells; host or cells: HeLa cell extract
T1 sequence (P21266 1-225): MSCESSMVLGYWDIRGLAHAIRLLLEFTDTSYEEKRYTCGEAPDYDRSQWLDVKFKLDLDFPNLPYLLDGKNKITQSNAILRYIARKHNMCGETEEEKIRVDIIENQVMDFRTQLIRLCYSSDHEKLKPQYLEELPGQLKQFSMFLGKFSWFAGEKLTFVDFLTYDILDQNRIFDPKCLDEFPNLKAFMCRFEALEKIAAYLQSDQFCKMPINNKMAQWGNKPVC

[2] = biological target: T2, HeLa cell extract proteins (Homo sapiens, UniProt Q8WTW3); settings: protein COG1; HeLa
T2 construct: endogenous in cells; host or cells: HeLa cell extract
T2 sequence (Q8WTW3 1-980): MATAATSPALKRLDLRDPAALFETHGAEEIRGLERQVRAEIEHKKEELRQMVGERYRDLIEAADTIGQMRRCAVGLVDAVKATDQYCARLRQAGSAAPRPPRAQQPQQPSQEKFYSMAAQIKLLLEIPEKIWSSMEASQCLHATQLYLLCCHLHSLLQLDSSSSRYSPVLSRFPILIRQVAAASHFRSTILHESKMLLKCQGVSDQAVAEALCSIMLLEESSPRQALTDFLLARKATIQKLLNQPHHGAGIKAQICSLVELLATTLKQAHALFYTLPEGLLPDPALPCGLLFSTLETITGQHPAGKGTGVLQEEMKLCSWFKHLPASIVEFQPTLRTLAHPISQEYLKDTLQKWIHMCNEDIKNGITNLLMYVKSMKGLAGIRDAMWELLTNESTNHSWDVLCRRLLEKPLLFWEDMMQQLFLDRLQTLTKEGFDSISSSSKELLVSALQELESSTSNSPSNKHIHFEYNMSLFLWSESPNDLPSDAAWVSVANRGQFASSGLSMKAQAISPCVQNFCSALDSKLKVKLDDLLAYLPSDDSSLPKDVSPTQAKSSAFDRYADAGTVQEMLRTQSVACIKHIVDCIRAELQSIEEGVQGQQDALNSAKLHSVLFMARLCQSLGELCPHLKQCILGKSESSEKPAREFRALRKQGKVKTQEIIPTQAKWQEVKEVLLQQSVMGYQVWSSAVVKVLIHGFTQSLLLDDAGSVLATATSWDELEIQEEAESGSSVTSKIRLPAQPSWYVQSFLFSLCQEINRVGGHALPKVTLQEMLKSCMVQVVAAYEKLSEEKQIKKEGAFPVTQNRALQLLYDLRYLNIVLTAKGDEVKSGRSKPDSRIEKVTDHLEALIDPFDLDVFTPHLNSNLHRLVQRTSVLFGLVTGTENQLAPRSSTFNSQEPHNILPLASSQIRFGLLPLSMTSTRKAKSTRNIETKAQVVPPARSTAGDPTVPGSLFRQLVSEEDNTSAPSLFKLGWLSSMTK

[3] = biological target: T3, HeLa cell extract proteins (Homo sapiens, UniProt Q9H7Z7); settings: captured protein PTGES2; HeLa
T3 construct: endogenous in cells; host or cells: HeLa cell extract
T3 sequence (Q9H7Z7 whole entry): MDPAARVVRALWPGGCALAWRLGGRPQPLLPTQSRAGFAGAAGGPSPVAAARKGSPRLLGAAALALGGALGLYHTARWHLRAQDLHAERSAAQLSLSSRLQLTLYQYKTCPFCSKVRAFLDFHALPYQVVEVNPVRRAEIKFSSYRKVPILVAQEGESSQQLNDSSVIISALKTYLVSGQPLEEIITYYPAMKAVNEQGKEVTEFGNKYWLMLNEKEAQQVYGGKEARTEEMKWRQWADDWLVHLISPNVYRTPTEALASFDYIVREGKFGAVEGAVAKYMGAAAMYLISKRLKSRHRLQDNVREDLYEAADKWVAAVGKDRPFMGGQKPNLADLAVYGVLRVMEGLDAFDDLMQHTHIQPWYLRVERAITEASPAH

[4] = biological target: T4, HeLa cell extract proteins (Homo sapiens, UniProt Q9Y266); settings: protein NUDC; HeLa
T4 construct: endogenous in cells; host or cells: HeLa cell extract
T4 sequence (Q9Y266 whole entry): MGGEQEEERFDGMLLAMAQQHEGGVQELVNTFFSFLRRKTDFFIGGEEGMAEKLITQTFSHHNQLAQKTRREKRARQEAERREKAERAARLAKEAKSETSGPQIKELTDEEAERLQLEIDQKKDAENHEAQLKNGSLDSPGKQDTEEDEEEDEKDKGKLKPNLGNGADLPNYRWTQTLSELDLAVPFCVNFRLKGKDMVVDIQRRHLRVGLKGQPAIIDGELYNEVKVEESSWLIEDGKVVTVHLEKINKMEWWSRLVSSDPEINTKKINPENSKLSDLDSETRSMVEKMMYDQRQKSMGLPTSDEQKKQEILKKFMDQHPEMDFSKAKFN

[5] = biological target: T5, HeLa cell extract proteins (Homo sapiens, UniProt P10619)
T5 construct: endogenous in cells; host or cells: HeLa cell extract
T5 sequence (P10619 29-480): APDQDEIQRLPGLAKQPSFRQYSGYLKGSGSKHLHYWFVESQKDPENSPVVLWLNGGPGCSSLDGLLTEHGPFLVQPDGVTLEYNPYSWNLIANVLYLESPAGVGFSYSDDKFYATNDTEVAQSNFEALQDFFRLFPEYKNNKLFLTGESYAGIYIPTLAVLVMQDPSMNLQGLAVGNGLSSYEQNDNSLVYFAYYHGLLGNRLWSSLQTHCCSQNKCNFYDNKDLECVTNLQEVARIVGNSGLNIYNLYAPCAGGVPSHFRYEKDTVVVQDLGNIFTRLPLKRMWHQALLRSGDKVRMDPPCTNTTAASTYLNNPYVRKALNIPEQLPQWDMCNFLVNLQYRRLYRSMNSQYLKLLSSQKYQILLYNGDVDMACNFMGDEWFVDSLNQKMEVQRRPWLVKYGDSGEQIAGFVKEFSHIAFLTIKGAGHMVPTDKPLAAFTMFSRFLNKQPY

[6] = biological target: T6, HeLa cell extract proteins (Homo sapiens, UniProt P30837)
T6 construct: endogenous in cells; host or cells: HeLa cell extract
T6 sequence (P30837 18-517): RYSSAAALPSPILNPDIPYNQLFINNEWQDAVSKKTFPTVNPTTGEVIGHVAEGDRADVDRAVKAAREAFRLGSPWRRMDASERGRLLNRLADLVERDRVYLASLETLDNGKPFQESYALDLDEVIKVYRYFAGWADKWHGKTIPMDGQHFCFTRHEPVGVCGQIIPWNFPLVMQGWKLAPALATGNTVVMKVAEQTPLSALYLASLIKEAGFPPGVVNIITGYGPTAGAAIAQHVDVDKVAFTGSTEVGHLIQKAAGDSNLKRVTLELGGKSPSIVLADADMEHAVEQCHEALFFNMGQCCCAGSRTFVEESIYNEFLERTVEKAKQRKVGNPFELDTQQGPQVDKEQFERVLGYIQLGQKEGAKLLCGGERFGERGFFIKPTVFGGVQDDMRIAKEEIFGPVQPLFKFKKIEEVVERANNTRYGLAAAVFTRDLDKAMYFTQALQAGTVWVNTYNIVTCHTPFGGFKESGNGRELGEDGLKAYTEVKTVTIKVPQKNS

[7] = biological target: T7, HeLa cell extract proteins (Homo sapiens, UniProt P60891)
T7 construct: endogenous in cells; host or cells: HeLa cell extract
T7 sequence (P60891 1-318): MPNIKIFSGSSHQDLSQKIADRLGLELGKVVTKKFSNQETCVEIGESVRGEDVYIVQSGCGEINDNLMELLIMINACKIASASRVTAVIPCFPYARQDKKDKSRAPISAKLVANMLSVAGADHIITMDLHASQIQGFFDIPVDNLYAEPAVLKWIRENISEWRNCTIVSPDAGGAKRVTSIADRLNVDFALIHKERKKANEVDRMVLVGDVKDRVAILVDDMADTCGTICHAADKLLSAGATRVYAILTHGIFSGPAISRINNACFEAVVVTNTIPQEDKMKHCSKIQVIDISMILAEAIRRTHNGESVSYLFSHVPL

[8] = biological target: T8, HeLa cell extract proteins (Homo sapiens, UniProt Q8NBJ5)
T8 construct: endogenous in cells; host or cells: HeLa cell extract

SMILES	fold changes relative to vehicle control [1]	fold changes relative to vehicle control [2]	fold changes relative to vehicle control [3]	fold changes relative to vehicle control [4]	fold changes relative to vehicle control ([5]; HeLa, protein CTSA)	fold changes relative to vehicle control ([6]; HeLa, captured protein ALDH1B1)	fold changes relative to vehicle control ([7]; HeLa, protein PRPS1)	fold changes relative to vehicle control ([8]; HeLa, captured protein GLT25D1)	further results
Nc1nc2cccc(-c3ccccc3)c2n1Cc1ccc(Cl)c(Cl)c1 [compound 3]	0.93	0.98	0.84	1.06					
CCCCCCOc1ccc(Cc2cnc(N)nc2N)cc1 [compound 1]	1.22	1	0.87	1.23					
NCCCNc1ccc(C(=O)NC(CCC(=O)O)C(=O)O)cc1 (stereo not shown) [compound 7]					1.13	0.95	0.9	0.97	
CCCCCCOc1cccc(Cc2cnc(N)nc2N)c1 [compound 2]	1.72	1.21	1.18	1.92					
NCCOCCOCC(=O)Nc1nc2ncc(CNc3ccc(C(=O)NC(CCC(=O)O)C(=O)O)cc3)nc2c(=O)[nH]1 (stereo not shown) [compound 6]					0.87	1.06	1.08	0.93	
Nc1nc2[nH]cc(CCc3ccc(C(=O)N[C@@H](CCC(=O)O)C(=O)O)cc3)c2c(=O)[nH]1 [PTX, pemetrexed]									fold changes relative to vehicle control [5]: 0.77; fold changes relative to vehicle control [6]: 0.93; fold changes relative to vehicle control [7]: 1.07; fold changes relative to vehicle control [8]: 0.83
Nc1nc2c(c(=O)[nH]1)N(C=O)C(CNc1ccc(C(=O)N[C@@H](CCC(=O)O)C(=O)O)cc1)CN2 (stereo partly shown) [LEU, leucovorin]					1.01	1.03	1.12	0.95	
